Measurements from ChEMBL document CHEMBL1150492, “Topliss approach to the synthesis of biologically active substituted N-benzoyl taxol analogues” (1994).

Key:
[1] = In vitro effect on microtubule assembly relative to that of Taxol, expressed as ED50/ED50 (Taxol=1); format: functional
B16 = test: In vitro effect on B16 melanoma cytotoxicity relative to that of Taxol, expressed as ED50/ED50 (Taxol=1); format: functional, Mus musculus

With CC(=O)O[C@H]1C(=O)[C@@]2(C)[C@H]([C@H](OC(=O)c3ccccc3)[C@]3(O)C[C@H](OC(=O)[C@H](O)[C@@H](N)c4ccccc4)C(C)=C1C3(C)C)[C@]1(OC(C)=O)CO[C@@H]1C[C@@H]2O the ED50 ratio [1] was 21.
Work on CC(=O)O[C@H]1C(=O)[C@@]2(C)[C@H]([C@H](OC(=O)c3ccccc3)[C@]3(O)C[C@H](OC(=O)[C@H](O)[C@@H](NC(=O)c4ccccc4)c4ccccc4)C(C)=C1C3(C)C)[C@]1(OC(C)=O)CO[C@@H]1C[C@@H]2O [PACLITAXEL] yielded an ED50 ratio (B16) of 1 and an ED50 ratio [1] of 1.
Work on CC(=O)O[C@H]1C(=O)[C@@]2(C)[C@H]([C@H](OC(=O)c3ccccc3)[C@]3(O)C[C@H](OC(=O)[C@H](O)[C@@H](NC(=O)c4ccc(Cl)c(Cl)c4)c4ccccc4)C(C)=C1C3(C)C)[C@]1(OC(C)=O)CO[C@@H]1C[C@@H]2O yielded an ED50 ratio (B16) of 10.6 and an ED50 ratio [1] of 2.1.
Work on COc1ccc(C(=O)N[C@@H](c2ccccc2)[C@@H](O)C(=O)O[C@H]2C[C@@]3(O)[C@@H](OC(=O)c4ccccc4)[C@@H]4[C@]5(OC(C)=O)CO[C@@H]5C[C@H](O)[C@@]4(C)C(=O)[C@H](OC(C)=O)C(=C2C)C3(C)C)cc1 yielded an ED50 ratio (B16) of 1.3 and an ED50 ratio [1] of 0.6.
CC(=O)O[C@H]1C(=O)[C@@]2(C)[C@H]([C@H](OC(=O)c3ccccc3)[C@]3(O)C[C@H](OC(=O)[C@H](O)[C@@H](NC(=O)c4ccc(Cl)cc4)c4ccccc4)C(C)=C1C3(C)C)[C@]1(OC(C)=O)CO[C@@H]1C[C@@H]2O showed an ED50 ratio (B16) of 1.5 and an ED50 ratio [1] of 2.4.
Work on CC(=O)O[C@H]1C(=O)[C@@]2(C)[C@H]([C@H](OC(=O)c3ccccc3)[C@]3(O)C[C@H](OC(=O)[C@H](O)[C@@H](NC(=O)c4ccccc4C)c4ccccc4)C(C)=C1C3(C)C)[C@]1(OC(C)=O)CO[C@@H]1C[C@@H]2O yielded an ED50 ratio (B16) of 7.5 and an ED50 ratio [1] of 1.9.
CC(=O)O[C@H]1C(=O)[C@@]2(C)[C@H]([C@H](OC(=O)c3ccccc3)[C@]3(O)C[C@H](OC(=O)[C@H](O)[C@@H](NC(=O)c4ccc(F)cc4)c4ccccc4)C(C)=C1C3(C)C)[C@]1(OC(C)=O)CO[C@@H]1C[C@@H]2O gave an ED50 ratio (B16) of 4.3 and an ED50 ratio [1] of 1.2.
With CC(=O)O[C@H]1C(=O)[C@@]2(C)[C@H]([C@H](OC(=O)c3ccccc3)[C@]3(O)C[C@H](OC(=O)[C@H](O)[C@@H](NC(=O)c4cccc(N(C)C)c4)c4ccccc4)C(C)=C1C3(C)C)[C@]1(OC(C)=O)CO[C@@H]1C[C@@H]2O the ED50 ratio (B16) was 1.6 and the ED50 ratio [1] was 1.4.
Compound CC(=O)O[C@H]1C(=O)[C@@]2(C)[C@H]([C@H](OC(=O)c3ccccc3)[C@]3(O)C[C@H](OC(=O)[C@H](O)[C@@H](NC(=O)c4cccc(Cl)c4)c4ccccc4)C(C)=C1C3(C)C)[C@]1(OC(C)=O)CO[C@@H]1C[C@@H]2O has an ED50 ratio (B16) of 1.8 and an ED50 ratio [1] of 2.
With CC(=O)O[C@H]1C(=O)[C@@]2(C)[C@H]([C@H](OC(=O)c3ccccc3)[C@]3(O)C[C@H](OC(=O)[C@H](O)[C@@H](NC(=O)c4ccc(C)cc4)c4ccccc4)C(C)=C1C3(C)C)[C@]1(OC(C)=O)CO[C@@H]1C[C@@H]2O the ED50 ratio (B16) was 1.4 and the ED50 ratio [1] was 1.6.
CC(=O)O[C@H]1C(=O)[C@@]2(C)[C@H]([C@H](OC(=O)c3ccccc3)[C@]3(O)C[C@H](OC(=O)[C@H](O)[C@@H](NC(=O)c4ccc([N+](=O)[O-])cc4)c4ccccc4)C(C)=C1C3(C)C)[C@]1(OC(C)=O)CO[C@@H]1C[C@@H]2O gave an ED50 ratio (B16) of 20.7 and an ED50 ratio [1] of 2.
